The record followed here is patent US6537545B1, “Use of corneal hardening agents in enzymeorthokeratology” (ISTA Pharmaceuticals, Inc., priority 1998, dated 2003).

For assay [1], the system named is eyes of myopic human subjects. The experiment in a line: Mild myopia study, group I: 50 IU hyaluronidase, corrective lenses, 3% glyceraldehyde (Example 9). The settings on record: 50 IU hyaluronidase and corrective lenses. The assay is classed as in vivo. An excerpt:
(§1) Given the favorable results obtained in Example 8, an additional study was undertaken to test the safety and efficacy of the method of the present invention using a larger group of subjects. In this study, a group of subjects were selected and randomly separated into three test groups to test the safety and efficacy of using hyaluronidase and a glyceraldehyde solution for treating subjects with sub-optimal visual acuity. Groups one and two received an intrastromal injection of hyaluronidase (50 and 500 IU, respectively), while group three received a control injection of saline.
(§2) Following a two week incubation period after the injection, the three groups were fitted with corrective lenses to optimize the visual acuity of the subjects. The corrective lenses were left in place for a period of time sufficient to alter the shape of the subjects' eyes so as to achieve an optimal visual acuity. This period of time was generally 2 days in length. Once an acceptable visual acuity was achieved, the subjects in the three groups received a topical 3% glyceraldehyde solution in the form of ophthalmic drops four times per day while wearing the corrective lenses. The glyceraldehyde treatment was generally administered for one month. Lens wear occurred from 8 to 12 hours during the day.
(§3) At the end of the treatment period both the lens wear and the glyceraldehyde solution administration was terminated. The general health and visual acuity of the subjects was monitored from 3 to 5 months following treatment termination.
Before beginning the experimental protocol, test subjects were examined initially to establish a baseline from which the future results of the treatment were compared. For each subject a medical history was taken and a detailed examination of the eyes was also performed. The eyes of each subject were tested to determine: refraction cell count, intraocular pressure (IOP), pachymetry, corneal topography and corneal elasticity. A slit-lamp examination was also performed to establish the health of the eye. Also, the presence of any general or ocular discomfort of the subjects was noted.
Following the establishment of a baseline reading, group 1 subjects were administered a single intrastromal injection of 50 IU hyaluronidase prior to the orthokeratology treatment. Following 14 days of incubation, the subjects were fitted with corrective contact lenses for overnight wear. Subjects wore the corrective lenses night and day for a period of two (2) to seven (7) days or until visual 20/20 visual acuity was achieved. Subjects achieving an acceptable visual acuity (approximately 20/20) received an application of the topical 3% glyceraldehyde solution ophthalmic drops four times per day (8:00, 12:00, 16:00, and 20:00) for a period of 1 month in conjunction with daytime lens wear for stabilization. Lens wear lasted for 8 to 12 hours per day. The subjects were examined periodically during the glyceraldehyde treatment to monitor changes in the health of the treated eyes.
(§4) At the end of the treatment period, the stabilizing lens were removed and the administration of the 3% glyceraldehyde solution was terminated. Following termination of the treatment, the subjects were examined immediately after treatment was terminated, once a week for the first four weeks after termination, and then monthly to measure changes in the visual acuity of the treated eyes. The health of the eye was also monitored. Sequelae characterized by the appearance or worsening of serious ocular symptoms or slit-lamp findings observed during these examinations was assessed. The proportions of subjects with such findings were analyzed.

Assay [2] concerns eye of myopic human patient. The experiment in a line: Safety and efficacy of hyaluronidase and topical 3% glyceraldehyde solution, myopia in a human patient (Example 8). The assay is classed as in vivo. The settings on record: one subject, baseline UVA 20/300; 50 IU hyaluronidase, 7 days incubation, 7 days corrective lens wear, before drops. The protocol:
In this study, a single subject was selected to test the safety and efficacy of using hyaluronidase and a glyceraldehyde solution to treat sub-optimal visual acuity. In this study, the subject was first medically evaluated and a baseline was established. A medical history of the subject was taken and a detailed examination of the subject's eyes was also performed. The subject's eyes were tested to determine: refraction, cell count, intraocular pressure (IOP), pachymetry, corneal topography and corneal elasticity. A slit-lamp examination was also performed to establish the health of the eyes. Also, the presence of any general or ocular discomfort of the subject was noted.
Following the establishment of a baseline reading (UVA 20/300), the subject was administered a single intrastromal injection of 50 IU hyaluronidase prior to the orthokeratology treatment. Following 7 days of incubation of the subject's eyes with the injected material, the subject was fitted with corrective contact lenses for overnight wear. The subject wore the corrective lenses day and night for a period of seven (7) days. At this point the subject's visual acuity was 20/15. […] The visual acuity of the subject was then monitored for 196 days to determine the effect of the treatment on the unaided visual acuity of the subject;

Assay [3] has as its system eyes of myopic human subjects. The experiment in a line: Mild myopia study, group II: 500 IU hyaluronidase, corrective lenses, 3% glyceraldehyde (Example 9). The settings on record: 500 IU hyaluronidase and corrective lenses. It is filed as in vivo.
From the text: as §1, §2, §3
The subjects of group II were treated as those in group I in preparation for their participation in the study reported here. Before beginning the experimental protocol, test subjects were examined initially to establish a baseline from which the future results of the treatment were compared.
Following the establishment of a baseline reading, group II subjects were fitted with contact lenses and wore the corrective lenses at night for a period of two (2) to seven (7) days or until an acceptable visual acuity (approximately 20/20) was achieved. Group II test subjects received 500 IU of hyaluronidase by injection as compared to the 50 IU of group I. Two groups of subjects received 500 IU of hyaluronidase. The results obtained from the first group are shown in Table IIIA and the results from the second group are shown in Table IIIA and are identified in the table by the notation Gr. VI. There were no meaningful differences in the treatment protocols between these two groups. Subjects achieving an acceptable visual acuity received the topical 3% glyceraldehyde solution in the form of ophthalmic drops four times per day (08:00, 12:00, 16:00, and 20:00) for a period of 1 month in conjunction with daytime lens wear for stabilization. During this period, lens were occurred for approximately 8-12 hours per day and there was no nocturnal lens wear.
The subjects were examined periodically during the glyceraldehyde treatment to monitor changes in the health of the treated eyes.
as §4, with “examinations were” for “examinations was”

A further assay deals with cornea. The experiment in a line: Corneal elasticity, recovery from indentation by spherical glass indentor (Example 7). The assay is classed as in vivo, human. The settings on record: eyes injected with hyaluronidase solution. The protocol: A precision spherical glass indentor was used to contact the corneal surface of subjects treated with the methods of the present invention to measure changes in corneal elasticity. The method used involved the application of the indentor, in the form of a small spherical ball to gently deflect into a test cornea to establish an initial deflection value. Measurements were taken by using an interferometer to view the deflection. Following this application, the relaxation period was measured by observing the change in the impression made by the indentor.
The indentation range of movement was characterized using a precision linear variable differential transducer (LVDT) device that measured the linear travel of a stage carrying the indentor probe. The average travel distance of the probe was established at approximately 700 micrometers. The contact depth of the indentor probe was measured by evaluating the corneal surface immediately after indentation and measuring the local height values caused by the probe contact. This value was measured to range from 266 to 300 micrometers.
A digital timer was used to mark the beginning and ending times during observation. Changes in the impression were readily observed during this period. The final end point was considered to be when the local fringe disturbance was recovered blending with the undisturbed neighboring fringes. […] However, given the time scales involved, the value of this error is considered to be small.
The method of inducing corneal inflection involved first contacting the test corneal with the indentor. After the initial contact with the cornea was established, the probe was moved forward into the cornea to a predetermined distance. Seven hundred microns was used to achieve adequate deflection. Topography was taken immediately after the deflection to record the impression made in the cornea. Observations of the cornea were then made at one (1) minute intervals to note the change in the impression made. […] Another topography was done after five (5) minutes to record the final condition of the impression. […]

Consider hyaluronidase, for which the “visual acuity achieved by initial orthokeratological treatment” value is 20/20 in assay [1] (all subjects except ARR/001 and JLV/015, before drops); 20/25 in assay [1] (subject 001, before glyceraldehyde drops); 20/40 in assay [1] (subject 015, before glyceraldehyde drops). For the same substance, in assay [2], the visual acuity is recorded as 20/15. Also, the “visual acuity achieved before glyceraldehyde drops” value in assay [3] (subject 013 (Table IIIA)) is given as 20/40; in assay [3] (subject 104 (Table IIIB)), 20/50. Moreover, the “change in corneal elasticity vs baseline” value with cornea is “significant reduction in corneal elasticity”.
